Results: BindingDB's records for doi:10.7270/Q26H4FT9 (Nmmlsc, 2009)

Molecular target: Cell division control protein 42 homolog (Homo sapiens, UniProt P60953)
Test: Cdc42 activated mutant GTP-binding inhibitors, SAR follow-up, biochemical, bead-based multiplex flow cytometry, additional SAR set (AID 2021)

Chain of Cell division control protein 42 homolog (P60953 whole entry): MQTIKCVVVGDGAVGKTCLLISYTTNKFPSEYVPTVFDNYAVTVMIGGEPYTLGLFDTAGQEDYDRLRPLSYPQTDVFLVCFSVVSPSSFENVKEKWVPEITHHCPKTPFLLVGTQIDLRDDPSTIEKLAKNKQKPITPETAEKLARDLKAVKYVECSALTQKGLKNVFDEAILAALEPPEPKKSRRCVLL

EC50	Structure (SMILES)
30 µM	O=C1Nc2c(Cl)cccc2C1=C1Nc2ccccc2C1=O
30 µM	O=C1Nc2c(Br)cccc2C1=C1Nc2ccccc2C1=O
30 µM	O=C1Nc2c(F)cccc2C1=C1Nc2ccccc2C1=O
5.26 µM	O=C1NC(=O)/C(=C2/C(=O)Nc3ccccc32)N1
30 µM	O=C1Nc2ccc(Br)cc2C1=C1Nc2ccccc2C1=O
30 µM	O=C1Nc2ccccc2/C1=C1/Nc2ccccc2C1=O [2-[(3Z)-2-oxo-2,3-dihydro-1H-indol-3-ylidene]-2,3-dihydro-1H-indol-3-one]
30 µM	O=C1N=c2ccccc2=C1c1[nH]c2ccccc2c1NO [3-[3-(hydroxyamino)-1H-indol-2-yl]-2-indolone]
30 µM	O=C1N=c2ccc(Br)cc2=C1c1[nH]c2ccccc2c1NO [5-bromanyl-3-[3-(oxidanylamino)-1H-indol-2-yl]indol-2-one]
55.1 µM	O=C1N=c2c(Br)cccc2=C1c1[nH]c2ccccc2c1NO [7-bromanyl-3-[3-(oxidanylamino)-1H-indol-2-yl]indol-2-one]
30 µM	O=C1N=c2c(Cl)cccc2=C1c1[nH]c2ccccc2c1NO [7-chloro-3-[3-(hydroxyamino)-1H-indol-2-yl]-2-indolone]
30 µM	O=C1N=c2c(F)cccc2=C1c1[nH]c2ccccc2c1NO [7-fluoro-3-[3-(hydroxyamino)-1H-indol-2-yl]-2-indolone]
30 µM	O=C1NC(=S)N/C1=C1\C(=O)Nc2ccccc21 [(3Z)-3-(5-oxo-2-sulfanylideneimidazolidin-4-ylidene)-1H-indol-2-one]
